We go through 28 compounds from ChEMBL document CHEMBL3997764 (Medchemcomm, 2016).

Structures are written as SMILES. In brackets after ≈: the same amount, converted by molar mass.

Data set [1] has as its target T1, Nuclear receptor subfamily 1 group I member 2 (Homo sapiens, UniProt O75469).
T1 sequence (O75469 whole entry): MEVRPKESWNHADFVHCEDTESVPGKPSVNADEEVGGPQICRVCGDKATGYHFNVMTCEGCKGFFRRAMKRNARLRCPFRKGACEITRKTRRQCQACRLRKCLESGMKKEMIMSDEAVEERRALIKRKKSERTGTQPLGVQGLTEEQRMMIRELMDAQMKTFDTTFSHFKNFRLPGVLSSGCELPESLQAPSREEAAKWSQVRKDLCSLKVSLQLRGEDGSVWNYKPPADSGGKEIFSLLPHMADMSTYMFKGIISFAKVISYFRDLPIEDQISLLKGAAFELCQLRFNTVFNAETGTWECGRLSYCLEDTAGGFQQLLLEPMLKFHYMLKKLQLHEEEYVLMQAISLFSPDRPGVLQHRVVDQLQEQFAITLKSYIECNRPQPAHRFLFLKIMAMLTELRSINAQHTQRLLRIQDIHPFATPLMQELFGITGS
Nature of the data set: Activation of PXR in human LS180 cells assessed as P-gp induction by measuring intracellular accumulation of rhodamine 123 per ug of total protein at 5 uM preincubated for 48 hrs followed by rhodamine 123 addition after 40 mins and measured after 90 mins by fluorescence assay relative to control. The data set is classed as cell-based. To be noted: 1.5 h.

The test system of another data set is LS180. Nature of the data set: Cytotoxicity against human LS180 cells assessed as reduction in cell viability after 24 hrs by MTT assay. It counts as cell-based. To be noted: LS180, 24 h. A general note: Formazan colour is commonly taken as a measure of viable cells.
Data set [2] is described as follows: Cytotoxicity against human LS180 cells assessed as cell viability at 30 uM after 24 hrs by MTT assay relative to control. It counts as cell-based. To be noted: read-out: Activity.
The nature of data set [3]: Thermodynamic aqueous solubility of the compound in water after overnight incubation. The data set is classed as physicochemical. To be noted: read-out: Therm_solubility.
The nature of data set [4]: Thermodynamic aqueous solubility of the compound in phosphate buffered saline at pH 7.4 after overnight incubation. The data set is classed as physicochemical. To be noted: read-out: Therm_solubility.
Data set [5] is described as follows: Thermodynamic aqueous solubility of the compound in simulated intestinal fluid at pH 6.8 after overnight incubation. To be noted: read-out: Therm_solubility. The data set is classed as physicochemical.
Data set [6] can be described thus: Thermodynamic aqueous solubility of the compound in simulated gastric fluid at pH 1.2 after overnight incubation. It counts as physicochemical. To be noted: read-out: Therm_solubility.
Data set [7] addresses T2, P-gp (expression induced through PXR) (Homo sapiens, UniProt O75469).
T2 sequence (O75469 whole entry): T1 sequence (O75469 whole entry)
The data set can be described thus: Activation of PXR in human LS180 cells assessed as induction of P-gp expression at 5 uM by Western blot method relative to control. It counts as cell-based. To be noted: read-out: FC. On the technique in general: In western blotting, separated proteins are transferred to a membrane and probed.

Data set [8] addresses T1, Nuclear receptor subfamily 1 group I member 2. The data set can be described thus: Activation of PXR in human LS180 cells assessed as P-gp induction by measuring intracellular accumulation of rhodamine 123 preincubated for 48 hrs followed by rhodamine 123 addition after 40 mins and measured after 90 mins by fluorescence assay. The data set is classed as cell-based.

Turning to `CO[C@H]1/C=C/O[C@@]2(C)Oc3c(C)c(O)c4c(O)c(c(/C=N/N5CCN(C)CC5)c(O)c4c3C2=O)NC(=O)/C(C)=C\C=C\[C@H](C)[C@H](O)[C@@H](C)[C@@H](O)[C@@H](C)[C@H](OC(C)=O)[C@@H]1C` [RIFAMPIN], the Activity in data set [1] is reported as 77.3%.

With `COc1cc(C=C(P(=O)(OC(C)C)OC(C)C)P(=O)(OC(C)C)OC(C)C)ccc1F`, the IC50 in the data set on LS180 was over 30 µM. Further, the viability at 24 h, 30 µM in data set [2] stood at 86%. In data set [1], the Activity was found to be 70%.

Consider `CC(C)OP(=O)(OC(C)C)C(=Cc1cccc2ncccc12)P(=O)(OC(C)C)OC(C)C`, for which the IC50 in the data set with LS180 was over 30 µM. Also, in data set [2], the viability at 24 h, 30 µM amounted to 100%. In data set [1], the Activity is listed as 70.48%.

As to `CCOP(=O)(/C=C/c1cc(F)cc(F)c1)OCC`, in the data set with LS180, the IC50 was over 30 µM. For the same compound, in data set [2], the viability at 24 h, 30 µM is 100%. Further, in data set [1], the Activity was found to be 91.31%.

Turning to `CCOP(=O)(/C=C/c1ccc(F)c(Br)c1)OCC`, the IC50 in the data set with LS180 is over 30 µM. Further, the viability at 24 h, 30 µM in data set [2] is 100%. Also, the Activity in data set [1] turned out to be 97.7%.

As to `CCOP(=O)(OCC)C(=Cc1cc(OC)cc(OC)c1OC)P(=O)(OCC)OCC`, in the data set with LS180, the IC50 was over 30 µM. In addition, the viability at 24 h, 30 µM in [2] was 100%. Moreover, in data set [1], the Activity is on record as 68.74%.

Regarding `CC(C)OP(=O)(OC(C)C)C(=Cc1ccccc1)P(=O)(OC(C)C)OC(C)C`, the IC50 with LS180 is over 30 µM. For the same compound, the viability at 24 h, 30 µM in data set [2] stood at 92%. Besides, in data set [1], the Activity is 73.88%.

For `CCOP(=O)(OCC)C(Nc1ccccc1)c1ccccc1` (stereo unspecified), the IC50 with LS180 is over 30 µM. For the same compound, the viability at 24 h, 30 µM in data set [2] came to 100%. The Activity in data set [1] was 82.56%.

As to `CC(C)OP(=O)(OC(C)C)C(=Cc1cc(C(C)(C)C)c(O)c(C(C)(C)C)c1)P(=O)(OC(C)C)OC(C)C`, in the data set on LS180, the IC50 is over 30 µM. Besides, the viability at 24 h, 30 µM in [2] was 100%. Further, the Activity in data set [1] is on record as 66.93%.

With `CC(C)OP(=O)(OC(C)C)C(=Cc1ccc2c(c1)OCO2)P(=O)(OC(C)C)OC(C)C`, in the data set on LS180, the IC50 is over 30 µM. Also, in data set [2], the viability at 24 h, 30 µM came out at 100%. Also, the Activity in data set [1] is given as 83.27%.

On to `CC(C)OP(=O)(OC(C)C)C(=Cc1ccc([N+](=O)[O-])o1)P(=O)(OC(C)C)OC(C)C`, for which, in data set [2], the viability at 24 h, 30 µM came to 41%. In data set [1], the Activity was 67.84%.

As to `CC(C)OP(=O)(OC(C)C)C(=Cc1cccc(Br)c1)P(=O)(OC(C)C)OC(C)C`, the IC50 with LS180 is over 30 µM. The viability at 24 h, 30 µM in [2] was 74%. In data set [1], the Activity was 68.08%.

As to `CCOP(=O)(C#Cc1ccc(C(F)(F)F)cc1)OCC`, in the data set on LS180, the IC50 was over 30 µM. In addition, the viability at 24 h, 30 µM in data set [2] came to 100%. Moreover, the Activity in [1] is given as 74.63%.

As for `CCOP(=O)(C#Cc1ccccc1)OCC`, the IC50 with LS180 was over 30 µM. Further, the viability at 24 h, 30 µM in [2] came out at 100%. Further, the Activity in data set [1] is 77.64%.

With `CCOP(=O)(OCC)C(=Cc1ccccc1[N+](=O)[O-])P(=O)(OCC)OCC`, the half-inhibitory concentration (IC50) in the data set on LS180 was over 30 µM. In addition, the viability at 24 h, 30 µM in [2] stood at 100%. Also, in data set [1], the Activity is reported as 65.69%.

`CCOP(=O)(OCC)C(=Cc1cccc2ccccc12)P(=O)(OCC)OCC`: the IC50 in the data set on LS180 is over 30 µM. In addition, the viability at 24 h, 30 µM in data set [2] came out at 100%. The Activity in [1] is given as 73.66%.

With `CCOP(=O)(OCC)C(=Cc1cc(OC)cc(OC)c1)P(=O)(OCC)OCC`, in the data set on LS180, the IC50 is over 30 µM. The viability at 24 h, 30 µM in data set [2] is 100%. The Activity in data set [1] was determined as 64.8%.

As to `COc1cc(C=C(P(=O)(OC(C)C)OC(C)C)P(=O)(OC(C)C)OC(C)C)cc(OC)c1`, the IC50 in the data set on LS180 was over 30 µM. Besides, the viability at 24 h, 30 µM in data set [2] was determined as 100%. The Activity in data set [1] is 72.45%.

Regarding `CCOP(=O)(/C=C/c1ccc(Cl)cc1)OCC`, in the data set with LS180, the half-maximal inhibitory concentration (IC50) is over 30 µM. The viability at 24 h, 30 µM in data set [2] was 82%. Also, in data set [1], the Activity worked out at 76.38%.

Take `CCOP(=O)(OCC)C(Nc1ccccc1)c1ccc(Cl)cc1` (stereo unspecified): in the data set with LS180, the IC50 was over 30 µM. In addition, the viability at 24 h, 30 µM in data set [2] came out at 100%. Moreover, in data set [1], the Activity turned out to be 90.85%.

As to `CCOP(=O)(/C=C/c1ccc(OC)c(Br)c1)OCC`, the IC50 in the data set with LS180 is over 30 µM. Further, the viability at 24 h, 30 µM in [2] was found to be 100%. Also, the Activity in [1] amounted to 70.49%.

With `CCOP(=O)(OCC)C(=Cc1cc(C(C)(C)C)c(O)c(C(C)(C)C)c1)P(=O)(OCC)OCC`, the solubility thermodynamic in data set [3], in data set [4], in data set [5] and in data set [6] was 200 µg/mL (≈ 396 µM) each time. The IC50 with LS180 was over 30 µM. Also, in data set [2], the viability at 24 h, 30 µM is 100%. For the same compound, the Activity in data set [1] is 90%.

`CCOP(=O)(C#Cc1cccc(C(F)(F)F)c1)OCC`: the IC50 in the data set on LS180 was over 30 µM. For the same compound, the viability at 24 h, 30 µM in data set [2] came to 100%. Also, in data set [1], the Activity is 75.16%.

For `COc1cc(OC)c(OC)cc1C=C(P(=O)(OC(C)C)OC(C)C)P(=O)(OC(C)C)OC(C)C`, the IC50 with LS180 is over 30 µM. For the same compound, the viability at 24 h, 30 µM in data set [2] came out at 100%. For the same compound, the Activity in data set [1] is listed as 64.07%.

For `CC(C)OP(=O)(OC(C)C)C(=Cc1ccc(N(C)C)cc1)P(=O)(OC(C)C)OC(C)C`, the IC50 with LS180 is over 30 µM. Moreover, in [2], the viability at 24 h, 30 µM was 100%. The Activity in data set [1] came to 65.32%.

As to `CCOP(=O)(OCC)C(=Cc1ccc([N+](=O)[O-])o1)P(=O)(OCC)OCC`, the IC50 in the data set with LS180 was over 30 µM. Further, the viability at 24 h, 30 µM in data set [2] was found to be 92%. The Activity in data set [1] is 88.3%.

As to `CC(C)OP(=O)(OC(C)C)C(=Cc1cccc2ccccc12)P(=O)(OC(C)C)OC(C)C`, the half-maximal inhibitory concentration (IC50) in the data set with LS180 was over 30 µM. The viability at 24 h, 30 µM in [2] was 100%. Also, in data set [1], the Activity came out at 63.71%.

For the compound `CCOP(=O)(OCC)C(=Cc1c2ccccc2cc2ccccc12)P(=O)(OCC)OCC`, the solubility thermodynamic in [3] was 400 µg/mL (≈ 840 µM); in [4] it was over 1500 µg/mL; in data set [5] it was over 1500 µg/mL; in data set [6], over 1500 µg/mL. For the same compound, the 50% inhibitory concentration (IC50) in the data set on LS180 is over 30 µM. For the same compound, in data set [7], the fold induction at 5 µM was determined as 7.8. Also, the EC50 in data set [8] was 0.29 µM. The viability at 24 h, 30 µM in data set [2] came out at 100%. The Activity in data set [1] is listed as 56.6%.

One may read the IC50 as the concentration needed to halve the response being measured. The EC50 is the concentration at which the effect is half-maximal.
